In article PMC10415282, “High resolution cryo-EM and crystallographic snapshots of the actinobacterial two-in-one 2-oxoglutarate dehydrogenase” (Nature Communications, 2023):

Legend:
[1] = target: T1, OdhAΔ97 (Corynebacterium glutamicum, UniProt Q8NRC3); experiment: crystal structure, […] Å; type: binding; conditions: co-crystallised with 5 mM CoASH, pH 7.5; E2o acceptor site; pantothenate chain not traced
T1 construct: gene odhA; N-terminal truncation, residues 98-1221, E. coli BL21(DE3), His6-TEV tag cleaved; homohexamer

[2] = target: T2, OdhA (Corynebacterium glutamicum, UniProt Q8NRC3); experiment: cryo-EM structure, […] Å; type: binding; conditions: E2o active site, out conformation; ThDP-Mg and acetyl-CoA also bound
T2 construct: full length residues 1-1221, E. coli BL21(DE3), N-terminal His6-TEV tag cleaved for cryo-EM (OdhA-His6 kept for SPR); homohexamer, ~800 kDa

[3] = target: T2, OdhA; experiment: cryo-EM structure, […] Å; type: binding; conditions: E2o active site; ThDP-Mg and acetyl-CoA also bound
[4] = target: T3, MsKGD-GarA complex (Mycolicibacterium smegmatis, UniProt A0R2B1); experiment: crystal structure, […] Å; type: binding; conditions: Mg2+; 2 mM ThDP, 5 mM MgCl2, pH 8.0; GarA bound, resting conformation
T3 construct: gene kgd; with Glycogen accumulation regulator GarA

[5] = target: T4, Corynebacterium glutamicum OdhA, full-length (residues 1-1221) (Corynebacterium glutamicum ATCC13032, UniProt Q8NRC3 1-1221); experiment: cryo-EM structure; single particle, OdhA incubated with OdhI at molar ratio 1:10, then SEC (Superose 6 increase, 20 mM Hepes pH 7.5, 500 mM NaCl); D3 symmetry; 2.3 Å; conditions: both partners purified
T4 construct: OdhA (E2o succinyltransferase and E1o 2-oxoglutarate decarboxylase domains on one chain), C. glutamicum ATCC13032, Uniprot Q8NRC3, residues 1-1221; TEV site (ENLYFQG) between the vector's His6-tag and the N-terminus; In the maps the chain is traced from Pro102; also called corynebacterial OdhA; source: E. coli BL21(DE3), purified (Ni-NTA, TEV cleavage, SEC); not shown: His6, N-terminal, cleaved
T4 sequence (looked up): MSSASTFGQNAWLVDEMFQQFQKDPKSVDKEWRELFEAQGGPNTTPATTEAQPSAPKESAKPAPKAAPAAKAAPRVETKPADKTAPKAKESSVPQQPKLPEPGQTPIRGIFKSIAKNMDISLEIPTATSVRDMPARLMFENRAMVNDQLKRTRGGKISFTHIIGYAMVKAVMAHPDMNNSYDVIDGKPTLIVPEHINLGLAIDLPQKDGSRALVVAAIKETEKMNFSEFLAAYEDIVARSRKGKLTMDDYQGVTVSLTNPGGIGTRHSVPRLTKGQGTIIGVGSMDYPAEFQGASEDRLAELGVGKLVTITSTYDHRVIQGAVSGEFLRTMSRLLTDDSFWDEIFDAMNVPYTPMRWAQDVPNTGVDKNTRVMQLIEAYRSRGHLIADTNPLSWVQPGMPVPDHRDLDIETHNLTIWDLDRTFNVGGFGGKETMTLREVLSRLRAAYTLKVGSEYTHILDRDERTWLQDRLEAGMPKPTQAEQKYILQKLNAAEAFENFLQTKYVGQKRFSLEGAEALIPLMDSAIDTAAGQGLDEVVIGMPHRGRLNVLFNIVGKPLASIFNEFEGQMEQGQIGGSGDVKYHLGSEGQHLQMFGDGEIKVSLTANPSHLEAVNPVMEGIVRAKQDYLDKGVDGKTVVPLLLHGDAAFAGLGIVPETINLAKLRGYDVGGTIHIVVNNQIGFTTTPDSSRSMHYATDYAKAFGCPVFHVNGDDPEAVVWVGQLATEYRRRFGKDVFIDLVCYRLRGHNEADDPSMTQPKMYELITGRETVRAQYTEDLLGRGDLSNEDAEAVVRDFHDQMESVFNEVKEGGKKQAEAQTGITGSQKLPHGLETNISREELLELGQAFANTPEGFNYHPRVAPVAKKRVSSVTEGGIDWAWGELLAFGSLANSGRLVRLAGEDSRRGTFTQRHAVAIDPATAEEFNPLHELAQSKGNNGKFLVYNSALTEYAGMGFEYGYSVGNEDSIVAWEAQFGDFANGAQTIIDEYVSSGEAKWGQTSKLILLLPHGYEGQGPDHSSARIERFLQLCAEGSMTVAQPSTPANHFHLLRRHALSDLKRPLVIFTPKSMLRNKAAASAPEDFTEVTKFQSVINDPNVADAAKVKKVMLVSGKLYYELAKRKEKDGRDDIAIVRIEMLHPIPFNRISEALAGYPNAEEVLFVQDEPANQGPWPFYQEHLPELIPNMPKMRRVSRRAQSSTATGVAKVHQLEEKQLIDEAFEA

CC(C)(COP(=O)(O)OP(=O)(O)OC[C@H]1O[C@@H](n2cnc3c(N)ncnc32)[C@H](O)[C@@H]1OP(=O)(O)O)[C@@H](O)C(=O)NCCC(=O)NCCS [CoASH]
crystal structure, 2.46 Å [1]: we could model CoASH, which was added to the cocrystallization mixture, as bound
cryo-EM structure, 2.2 Å [2]: the OdhA-CoASH complex shows the bound CoASH with the pantothenate chain not entering

CC(C)(COP(=O)(O)OP(=O)(O)OC[C@H]1O[C@@H](n2cnc3c(N)ncnc32)[C@H](O)[C@@H]1OP(=O)(O)O)[C@@H](O)C(=O)NCCC(=O)NCCSC(=O)CCC(=O)O [succinyl-CoA]
cryo-EM structure, 2.1 Å [3]: succinyl-CoA binds to the same domain with its 2-phosphoadenosine moiety superimposable

Cc1ncc(C[n+]2csc(CCOP(=O)(O)OP(=O)(O)O)c2C)c(N)n1 [ThDP]
crystal structure, 4.6 Å [4]: The E1o dimers containing the Mg-ThDP compose the blades

B1: Corynebacterium glutamicum OdhI (residues 1-143) (natural protein, Corynebacterium glutamicum ATCC13032, UniProt Q8NQJ3 1-143, looked up)
chain: MSDNNGTPEPQVETTSVFRADLLKEMESSTGTAPASTGAENLPAGSALLVVKRGPNAGARFLLDQPTTTAGRHPESDIFLDDVTVSRRHAEFRINEGEFEVVDVGSLNGTYVNREPRNAQVMQTGDEIQIGKFRLVFLAGPAE
notes: In the map only the FHA domain (Glu40-Ala142) is traceable; source: E. coli BL21(DE3), purified (Ni-NTA, TEV cleavage, SEC); not shown: His6, N-terminal, cleaved
stoichiometry N [5]: 1
